The values below come from patent publication US20260022142A1, “MACROCYCLIC IMMUNOMODULATORS” (Bristol-Myers Squibb Company, priority 2022, published 2026).

Bridge positions count the residues as written; N and C are the ends. Square brackets hold non-standard residues; d marks the D form. Peptide text beside a SMILES is read from it. * marks the point of attachment. Bip = N[C@@H](Cc1ccc(-c2ccccc2)cc1)C(=O)O; Phe(3-Me) = Cc1cccc(C[C@H](N)C(=O)O)c1; Val(3-OH) = CC(C)(O)[C@H](N)C(=O)O; Cha = N[C@@H](CC1CCCCC1)C(=O)O; Cit = NC(=O)NCCC[C@H](N)C(=O)O; Tle = CC(C)(C)[C@H](N)C(=O)O; Carboxymethyl = O=C(O)C*; Orn = NCCC[C@H](N)C(=O)O; Aun = NCCCCCCCCCCC(=O)O; Dab = NCC[C@H](N)C(=O)O; Dap = NC[C@H](N)C(=O)O; Sar = CNCC(=O)O

Broadly, the IC50 is the concentration that gives 50% inhibition.

The target in this assay is T1, PD-1/PD-L1 interaction (PE-labeled human PD-L1-Ig binding to Jurkat cell line over-expressing human PD-1) (Homo sapiens, UniProt Q15116).
T1 construct: expressed in transfected cells; host or cells: Jurkat
T1 sequence (Q15116 25-288): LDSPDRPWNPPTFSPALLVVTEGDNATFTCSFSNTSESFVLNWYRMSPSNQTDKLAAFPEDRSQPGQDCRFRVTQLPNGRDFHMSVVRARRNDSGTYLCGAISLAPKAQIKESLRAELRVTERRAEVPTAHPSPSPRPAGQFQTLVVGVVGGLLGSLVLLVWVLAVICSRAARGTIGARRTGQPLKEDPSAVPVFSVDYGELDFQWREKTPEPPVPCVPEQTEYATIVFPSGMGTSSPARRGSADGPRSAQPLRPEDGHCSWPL
Briefly: Jurkat-PD-1 Cell Binding High-Content Screening Assay (CBA). The note with it: Jurkat cell line over-expressing human PD-1; PE-labeled PD-L1-Ig 20 nM final; read-out: Jurkat hPD1-PDL1 IC50. In kind it is cell-based. A digest of the protocol: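 Human PD-L1-Ig carrying a covalent PE label on its Ig tag serves as the probe, applied at 20 nM final to compound-treated (2 h, 37° C) Jurkat-hPD-1 cells in medium with 10% fetal calf serum. After one hour, fixation and nuclear staining precede high-content image analysis.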
In the case of `Cc1cccc(C[C@@H]2NC(=O)[C@H](CC(=O)O)NC(=O)[C@H](Cc3ccc(OCC(=O)O)cc3)NC(=O)[C@H](CCCNC(=N)N)NC(=O)CSC[C@@H](C(=O)N[C@@H](CCCN)C(=O)NCCCCCCCCCCC(=O)O)NC(=O)[C@H]([C@@H](C)O)NC(=O)[C@H](C(C)C)NC(=O)[C@H](CC3CCCCC3)NC(=O)[C@H](CCN)NC(=O)[C@@H](CC(C)C)NC(=O)[C@H](CCCNC(N)=O)NC(=O)[C@H](Cc3ccc(OCC(=O)O)cc3)NC(=O)[C@H](Cc3ccc(-c4ccccc4)cc3)NC(=O)[C@H](Cc3ccc(OCC(=O)O)cc3)NC2=O)c1` [Compound 2838] ({CH2CO}-RY(Carboxymethyl)D[Phe(3-Me)]Y(Carboxymethyl)[Bip]Y(Carboxymethyl)[Cit][dL][Dab][Cha]VTC[Orn][Aun]-OH; thioether N-14), the IC50 was found to be 0.0302 µM.

Consider `Cc1cccc(C[C@@H]2NC(=O)[C@H](CC(=O)O)NC(=O)[C@H](Cc3ccc(OCC(=O)O)cc3)NC(=O)[C@H](CN)NC(=O)CSC[C@@H](C(=O)N(C)CC(=O)N[C@@H](CCC(=O)O)C(=O)NCCCCCCCCCCC(=O)O)NC(=O)[C@H]([C@@H](C)O)NC(=O)[C@H](C(C)C)NC(=O)[C@H](CC3CCCCC3)NC(=O)[C@H](CCN)NC(=O)[C@@H](CC(C)C)NC(=O)[C@H](CCCN)NC(=O)[C@H](CCCNC(N)=O)NC(=O)[C@H](Cc3ccc(-c4ccccc4)cc3)NC(=O)[C@H](C(C)C)NC2=O)c1` [Compound 2839] ({CH2CO}-[Dap]Y(Carboxymethyl)D[Phe(3-Me)]V[Bip][Cit][Orn][dL][Dab][Cha]VTC[Sar]E[Aun]-OH; thioether N-14), for which the IC50 came to 0.186 µM.

As to `Cc1cccc(C[C@@H]2NC(=O)[C@H](CC(=O)O)NC(=O)[C@H](Cc3ccc(OCC(=O)O)cc3)NC(=O)[C@H](CN)NC(=O)CSC[C@@H](C(=O)N[C@@H](CCN)C(=O)NCCCCCCCCCCC(=O)O)NC(=O)[C@H]([C@@H](C)O)NC(=O)[C@H](C(C)(C)C)NC(=O)[C@H](CC3CCCCC3)NC(=O)[C@H](CCN)NC(=O)[C@@H](CC(C)C)NC(=O)[C@H](CCCN)NC(=O)[C@H](CCCNC(N)=O)NC(=O)[C@H](Cc3ccc(-c4ccccc4)cc3)NC(=O)[C@H](C(C)C)NC2=O)c1` [Compound 2840] ({CH2CO}-[Dap]Y(Carboxymethyl)D[Phe(3-Me)]V[Bip][Cit][Orn][dL][Dab][Cha][Tle]TC[Dab][Aun]-OH; thioether N-14), the IC50 was found to be 0.0181 µM.

Consider `Cc1cccc(C[C@@H]2NC(=O)[C@H](CC(=O)O)NC(=O)[C@H](Cc3ccc(OCC(=O)O)cc3)NC(=O)[C@H](CN)NC(=O)CSC[C@@H](C(=O)N[C@@H](CCN)C(=O)NCCCCCCCCCCC(=O)O)NC(=O)[C@H](CCCN)NC(=O)[C@H](C(C)C)NC(=O)[C@H](CC3CCCCC3)NC(=O)[C@H](CCN)NC(=O)[C@@H](CC(C)C)NC(=O)[C@H](CCCN)NC(=O)[C@H](Cc3ccc(O)cc3)NC(=O)[C@H](Cc3ccc(-c4ccccc4)cc3)NC(=O)[C@H](C(C)C)NC2=O)c1` [Compound 2841] ({CH2CO}-[Dap]Y(Carboxymethyl)D[Phe(3-Me)]V[Bip]Y[Orn][dL][Dab][Cha]V[Orn]C[Dab][Aun]-OH; thioether N-14), for which the IC50 stood at 0.0123 µM.

Turning to `Cc1cccc(C[C@@H]2NC(=O)[C@H](CC(=O)O)NC(=O)[C@H](Cc3ccc(OCC(=O)O)cc3)NC(=O)[C@H](CN)NC(=O)CSC[C@@H](C(=O)N[C@@H](CCN)C(=O)NCCCCCCCCCCC(=O)O)NC(=O)[C@H](CCCN)NC(=O)[C@H](C(C)C)NC(=O)[C@H](CC3CCCCC3)NC(=O)[C@H](CCN)NC(=O)[C@@H](CC(C)C)NC(=O)[C@H](CCCN)NC(=O)[C@H](Cc3ccc(OCC(=O)O)cc3)NC(=O)[C@H](Cc3ccc(-c4ccccc4)cc3)NC(=O)[C@H](C(C)C)NC2=O)c1` [Compound 2842] ({CH2CO}-[Dap]Y(Carboxymethyl)D[Phe(3-Me)]V[Bip]Y(Carboxymethyl)[Orn][dL][Dab][Cha]V[Orn]C[Dab][Aun]-OH; thioether N-14), the IC50 was 0.0111 µM.

Turning to `Cc1cccc(C[C@@H]2NC(=O)[C@H](CC(=O)O)NC(=O)[C@H](Cc3ccc(OCC(=O)O)cc3)NC(=O)[C@H](CN)NC(=O)CSC[C@@H](C(=O)N[C@@H](CCN)C(=O)NCCCCCCCCCCC(=O)O)NC(=O)[C@H](CCCN)NC(=O)[C@H](C(C)C)NC(=O)[C@H](CC3CCCCC3)NC(=O)[C@H](CCN)NC(=O)[C@@H](CC(C)C)NC(=O)[C@H](CCCN)NC(=O)[C@H](Cc3ccc(OCC(=O)O)cc3)NC(=O)[C@H](Cc3ccc(-c4ccccc4)cc3)NC(=O)[C@H](Cc3ccc(OCC(=O)O)cc3)NC2=O)c1` [Compound 2843] ({CH2CO}-[Dap]Y(Carboxymethyl)D[Phe(3-Me)]Y(Carboxymethyl)[Bip]Y(Carboxymethyl)[Orn][dL][Dab][Cha]V[Orn]C[Dab][Aun]-OH; thioether N-14), the IC50 stood at 0.0092 µM.

For `Cc1cccc(C[C@@H]2NC(=O)[C@H](CC(=O)O)NC(=O)[C@H](Cc3ccc(OCC(=O)O)cc3)NC(=O)[C@H](CN)NC(=O)CSC[C@@H](C(=O)N[C@@H](CCN)C(=O)NCCCCCCCCCCC(=O)O)NC(=O)[C@H](CCCN)NC(=O)[C@H](C(C)C)NC(=O)[C@H](CC3CCCCC3)NC(=O)[C@H](CCN)NC(=O)[C@@H](CC(C)C)NC(=O)[C@H](CCCN)NC(=O)[C@H](CCCNC(N)=O)NC(=O)[C@H](Cc3ccc(-c4ccccc4)cc3)NC(=O)[C@H](Cc3ccc(OCC(=O)O)cc3)NC2=O)c1` [Compound 2844] ({CH2CO}-[Dap]Y(Carboxymethyl)D[Phe(3-Me)]Y(Carboxymethyl)[Bip][Cit][Orn][dL][Dab][Cha]V[Orn]C[Dab][Aun]-OH; thioether N-14), the 50% inhibitory concentration (IC50) is 0.0255 µM.

Turning to `Cc1cccc(C[C@@H]2NC(=O)[C@H](CC(=O)O)NC(=O)[C@H](Cc3ccc(OCC(=O)O)cc3)NC(=O)[C@H](CN)NC(=O)CSC[C@@H](C(=O)N[C@@H](CCN)C(=O)NCCCCCCCCCCC(=O)O)NC(=O)[C@H](CCCN)NC(=O)[C@H](C(C)C)NC(=O)[C@H](CC3CCCCC3)NC(=O)[C@H](CCN)NC(=O)[C@@H](CC(C)C)NC(=O)[C@H](CCCN)NC(=O)[C@H](CCCNC(N)=O)NC(=O)[C@H](Cc3ccc(-c4ccccc4)cc3)NC(=O)[C@H](C(C)C)NC2=O)c1` [Compound 2845] ({CH2CO}-[Dap]Y(Carboxymethyl)D[Phe(3-Me)]V[Bip][Cit][Orn][dL][Dab][Cha]V[Orn]C[Dab][Aun]-OH; thioether N-14), the IC50 turned out to be 0.0142 µM.

`Cc1cccc(C[C@@H]2NC(=O)[C@H](CC(=O)O)NC(=O)[C@H](Cc3ccc(OCC(=O)O)cc3)NC(=O)[C@H](CN)NC(=O)CSC[C@@H](C(=O)N[C@@H](CCN)C(=O)NCCCCCCCCCCC(=O)O)NC(=O)[C@H](CCCN)NC(=O)[C@H](C(C)C)NC(=O)[C@H](CC3CCCCC3)NC(=O)[C@H](CCN)NC(=O)[C@@H](CC(C)C)NC(=O)[C@H](CCCN)NC(=O)[C@H](CCCNC(N)=O)NC(=O)[C@H](Cc3ccc(-c4ccccc4)cc3)NC(=O)[C@H](Cc3ccc(O)cc3)NC2=O)c1` [Compound 2846] ({CH2CO}-[Dap]Y(Carboxymethyl)D[Phe(3-Me)]Y[Bip][Cit][Orn][dL][Dab][Cha]V[Orn]C[Dab][Aun]-OH; thioether N-14): the IC50 was 0.0128 µM.

With `Cc1cccc(C[C@@H]2NC(=O)[C@H](CC(=O)O)NC(=O)[C@H](Cc3ccc(OCC(=O)O)cc3)NC(=O)[C@H](CN)NC(=O)CSC[C@@H](C(=O)N[C@@H](CCN)C(=O)NCCCCCCCCCCC(=O)O)NC(=O)[C@H]([C@@H](C)O)NC(=O)[C@H](C(C)C)NC(=O)[C@H](CC3CCCCC3)NC(=O)[C@H](CCN)NC(=O)[C@@H](CC(C)C)NC(=O)[C@H](CCCN)NC(=O)[C@H](CCC(N)=O)NC(=O)[C@H](Cc3ccc(-c4ccccc4)cc3)NC(=O)[C@H](C(C)C)NC2=O)c1` [Compound 2847] ({CH2CO}-[Dap]Y(Carboxymethyl)D[Phe(3-Me)]V[Bip]Q[Orn][dL][Dab][Cha]VTC[Dab][Aun]-OH; thioether N-14), the IC50 amounted to 0.0205 µM.

In the case of `Cc1cccc(C[C@@H]2NC(=O)[C@H](CC(=O)O)NC(=O)[C@H](Cc3ccc(OCC(=O)O)cc3)NC(=O)[C@H](CCCNC(=N)N)NC(=O)CSC[C@@H](C(=O)N[C@@H](CCN)C(=O)NCCCCCCCCCCC(=O)O)NC(=O)[C@H](CCCN)NC(=O)[C@H](C(C)(C)O)NC(=O)[C@H](CC3CCCCC3)NC(=O)[C@H](CCN)NC(=O)[C@@H](CC(C)C)NC(=O)[C@H](CCCN)NC(=O)[C@H](Cc3ccc(OCC(=O)O)cc3)NC(=O)[C@H](Cc3ccc(-c4ccccc4)cc3)NC(=O)[C@H](Cc3ccc(OCC(=O)O)cc3)NC2=O)c1` [Compound 2849] ({CH2CO}-RY(Carboxymethyl)D[Phe(3-Me)]Y(Carboxymethyl)[Bip]Y(Carboxymethyl)[Orn][dL][Dab][Cha][Val(3-OH)][Orn]C[Dab][Aun]-OH; thioether N-14), the IC50 amounted to 0.005 µM.

For `Cc1cccc(C[C@@H]2NC(=O)[C@H](CC(=O)O)NC(=O)[C@H](Cc3ccc(OCC(=O)O)cc3)NC(=O)[C@H](CCCNC(=N)N)NC(=O)CSC[C@@H](C(=O)N[C@@H](CCCCN)C(=O)NCCCCCCCCCCC(=O)O)NC(=O)[C@H](CN)NC(=O)[C@H](C(C)(C)O)NC(=O)[C@H](CC3CCCCC3)NC(=O)[C@H](CCN)NC(=O)[C@@H](CC(C)C)NC(=O)[C@H](CCCN)NC(=O)[C@H](Cc3ccc(OCC(=O)O)cc3)NC(=O)[C@H](Cc3ccc(-c4ccccc4)cc3)NC(=O)[C@H](Cc3ccc(OCC(=O)O)cc3)NC2=O)c1` [Compound 2850] ({CH2CO}-RY(Carboxymethyl)D[Phe(3-Me)]Y(Carboxymethyl)[Bip]Y(Carboxymethyl)[Orn][dL][Dab][Cha][Val(3-OH)][Dap]CK[Aun]-OH; thioether N-14), the IC50 is 0.0304 µM.

Regarding `Cc1cccc(C[C@@H]2NC(=O)[C@H](CC(=O)O)NC(=O)[C@H](Cc3ccc(OCC(=O)O)cc3)NC(=O)[C@H](CCCNC(=N)N)NC(=O)CSC[C@@H](C(=O)N[C@@H](CO)C(=O)N[C@@H](CO)C(=O)NCCCCCCCCCCC(=O)O)NC(=O)[C@H]([C@@H](C)O)NC(=O)[C@H](C(C)C)NC(=O)[C@H](CC3CCCCC3)NC(=O)[C@H](CCN)NC(=O)[C@@H](CC(C)C)NC(=O)[C@H](CCCN)NC(=O)[C@H](CCCNC(N)=O)NC(=O)[C@H](Cc3ccc(-c4ccccc4)cc3)NC(=O)[C@H](C(C)C)NC2=O)c1` [Compound 2851] ({CH2CO}-RY(Carboxymethyl)D[Phe(3-Me)]V[Bip][Cit][Orn][dL][Dab][Cha]VTCSS[Aun]-OH; thioether N-14), the IC50 stood at 0.0213 µM.
